Source: ChEMBL document CHEMBL3351821, “Naturally occurring N(6)-substituted adenosines (cytokinin ribosides) are in vitro inhibitors of platelet aggregation: an in silico evaluation of their interaction with the P2Y(12) receptor” (Bioorg Med Chem Lett, 2014)
The source made the active and inactive calls. The calls are words filed in the database; no cut-off is given here.

System: Platelet
Test: Inhibition of collagen-induced human platelet aggregation after 3 mins by light transmission aggregometry
Type: functional, cell-based
Details: for IC50: 0.05 h

Compound	IC50	inhibition
OC[C@H]1O[C@@H](n2cnc3c(NCc4ccc(O)cc4)ncnc32)[C@H](O)[C@@H]1O	6.77 µM	
c1coc(CNc2ncnc3[nH]cnc23)c1		Active
OC[C@H]1O[C@@H](n2cnc3c(NCc4ccco4)ncnc32)[C@H](O)[C@@H]1O [KINETIN RIBOSIDE]	41.2 µM	
OC[C@H]1O[C@@H](n2cnc3c(NCc4ccccc4)ncnc32)[C@H](O)[C@@H]1O [N6-BENZYLADENOSINE]	37.1 µM	
CC(C)=CCNc1ncnc2c1ncn2[C@@H]1O[C@H](CO)[C@@H](O)[C@H]1O [RIBOPRINE]	142 µM	
